Laboratory results as given in US5574008A, “Biologically active fragments of glucagon-like insulinotropic peptide” (Eli Lilly and Company, priority 1994, dated 1996).

System: fasted normal Sprague-Dawley rats
Assay: In vivo hyperglycemic clamp assay (glucose up-take assay)
Design: species or system rat
Settings: 200 mg/dl plasma glucose clamp, 0.3 nmol/kg iv bolus at 60 min
Description: In vivo Hyperglycemic Clamp Assay (Glucose Up-take Assay) Male Sprague-Dawley rats (Charles Rivers) weighing about 350 grams were allowed to acclimate to their surroundings for a week after which they were cannulated under isoflurane inhalation anesthetic. Two catheters were implanted into the jugular vein for infusions of glucose and GLP-1 fragment. Another catheter was implanted into the carotid artery for sampling blood. The catheters were exteriorized through the skin at the vertex of the head, filled with a glycerol/heparin solution (30 ml glycerol/10 ml heparin from a 1000 u/ml stock solution), and closed off with a one centimeter stainless steel plug. The rats were housed individually in wire mesh cages and were fed ad libitum on a standard rat chow diet. Each animal was given at least one week to recover from surgery before testing any GLP-1 fragments for biological activity. The rats were fasted overnight; on the morning of the experiment, sampling tubes were connected to the indwelling catheters, and the tubes were enclosed in a light weight stainless steel spring for protection. The rats were acclimated to their cages for 15 minutes. All experiments were carried out in conscious, free moving rats. A basal blood sample was taken for measurement of insulin and glucose levels at time zero on the timer. The rats were then given a bolus of 20% dextrose to raise plasma glucose to either 150 mg/dl (8.3 mM) or 200 mg/dl (11.2 mM). Plasma glucose levels were maintained at the chosen level by measuring plasma glucose levels approximately every 5 minutes and adjusting the calibrated variable infusion pump as needed to maintain the established blood glucose levels. Blood samples were collected at 45 and 60 minutes for the control period measurements. At 60 minutes into the clamp, 0.3 nmol/kg of the experimental GLP-1 fragment was injected via the jugular vein catheter and flushed with saline. […] The blood samples were centrifuged in a micro centrifuge to separate the plasma component. Plasma glucose was measured on a Beckman Glucose analyzer II using the glucose oxidase method. Plasma insulin was determined by standard radio immunoassay as per the manufacturer's directions (Diagnostic Products Corp.). The activity of the GLP-1 fragment was determined by the percentage change in glucose infusion rate and change in insulin secreted. These two parameters were compared to control rats that received only diluent. Note: This assay is based on reports that GLP-1 insulinotropic action is glucose dependent. The assay protocol eliminates variability due to falling glucose levels in other protocols using the "bolus" method. The hyperglycemic clamp involved administration of variable amounts of glucose (20% dextrose) to maintain glucose at a constant level of 8.3 or 11.2 mM in fasted normal Sprague-Dawley rats. The hyperglycemic clamp is maintained for 1 hour after which the GLP-1 fragment is injected as a bolus through the jugular vein. […] The glucose infusion rate (GIR) in the last 15 minutes of the control period and after the injection of the peptide is calculated. The activity of the peptide is determined by the increase in glucose infusion rate and change in insulin secreted after the injection of the peptide.

Compound: CC[C@H](C)[C@H](NC(=O)[C@H](Cc1ccccc1)NC(=O)[C@H](CCC(=O)O)NC(=O)[C@H](CCCCN)NC(=O)[C@H](C)NC(=O)[C@H](C)NC(=O)[C@H](CCC(N)=O)NC(=O)CNC(=O)[C@H](CCC(=O)O)NC(=O)[C@H](CC(C)C)NC(=O)[C@H](Cc1ccc(O)cc1)NC(=O)[C@H](CO)NC(=O)[C@H](CO)NC(=O)[C@@H](NC(=O)[C@H](CC(=O)O)NC(=O)[C@H](CO)NC(=O)[C@@H](NC(=O)[C@H](Cc1ccccc1)NC(=O)[C@@H](NC(=O)CNC(=O)[C@@H](N)CCC(=O)O)[C@@H](C)O)[C@@H](C)O)C(C)C)C(=O)N[C@@H](C)C(=O)N[C@@H](Cc1c[nH]c2ccccc12)C(=O)N[C@@H](CC(C)C)C(=O)N[C@H](C(=O)N[C@@H](CCCCN)C(=O)NCC(=O)N[C@@H](CCCNC(=N)N)C(N)=O)C(C)C [GLP-1(9-36)NH2]
- % Change in GIR (time 60 min): 21.936%
- Plasma Insulin Change (time 60 min): 2.429 ng/mL
- % Change in GIR (time 62 min): -1.287%
- Plasma Insulin Change (time 62 min): -0.521 ng/mL
- % Change in GIR (time 64 min): 0.635%
- Plasma Insulin Change (time 64 min): -0.765 ng/mL
- % Change in GIR (time 66 min): 10.697%
- Plasma Insulin Change (time 66 min): -0.637 ng/mL
- % Change in GIR (time 68 min): 24.584%
- Plasma Insulin Change (time 68 min): -0.662 ng/mL
- % Change in GIR (time 70 min): 46.387%
- Plasma Insulin Change (time 70 min): -0.274 ng/mL
- % Change in GIR (time 75 min): 61.185%
- Plasma Insulin Change (time 75 min): 0.138 ng/mL
- % Change in GIR (time 80 min): 48.254%
- Plasma Insulin Change (time 80 min): -0.390 ng/mL
- % Change in GIR (time 85 min): 34.689%
- Plasma Insulin Change (time 85 min): 0.064 ng/mL
- % Change in GIR (time 90 min): 17.272%
- Plasma Insulin Change (time 90 min): -0.361 ng/mL
- % Change in GIR (time 100 min): 7.537%
- Plasma Insulin Change (time 100 min): -0.743 ng/mL
- % Change in GIR (time 110 min): -0.920%
- Plasma Insulin Change (time 110 min): -0.824 ng/mL
- % Change in GIR (time 120 min): 4.716%
- Plasma Insulin Change (time 120 min): -0.880 ng/mL
- % Change in GIR (time 130 min): 3.818%
- Plasma Insulin Change (time 130 min): -0.653 ng/mL
- % Change in GIR (time 140 min): -6.783%
- Plasma Insulin Change (time 140 min): -0.927 ng/mL
- % Change in GIR (time 150 min): 1.333%
- Plasma Insulin Change (time 150 min): -0.450 ng/mL
